Tests used:
[1] = target: CDK7/cyclinH/MAT1(h) (Homo sapiens, UniProt P50613); assay: Off-target kinase panel; format: biochemical; settings: MI891 @ 1 µM
Protocol: (§1) To evaluate the selectivity of MI891, an off-target profiling study was performed using a panel of 58 kinases.

[2] = target: T1, PI3 Kinase (p110d/p85a)(h) (Homo sapiens, UniProt O00329); assay: Off-target kinase panel; format: biochemical; settings: MI891 @ 1 µM
T1 construct: purchased Eurofins (Millipore) KinaseProfiler, inferred from the naming style
T1 sequence (O00329 whole entry): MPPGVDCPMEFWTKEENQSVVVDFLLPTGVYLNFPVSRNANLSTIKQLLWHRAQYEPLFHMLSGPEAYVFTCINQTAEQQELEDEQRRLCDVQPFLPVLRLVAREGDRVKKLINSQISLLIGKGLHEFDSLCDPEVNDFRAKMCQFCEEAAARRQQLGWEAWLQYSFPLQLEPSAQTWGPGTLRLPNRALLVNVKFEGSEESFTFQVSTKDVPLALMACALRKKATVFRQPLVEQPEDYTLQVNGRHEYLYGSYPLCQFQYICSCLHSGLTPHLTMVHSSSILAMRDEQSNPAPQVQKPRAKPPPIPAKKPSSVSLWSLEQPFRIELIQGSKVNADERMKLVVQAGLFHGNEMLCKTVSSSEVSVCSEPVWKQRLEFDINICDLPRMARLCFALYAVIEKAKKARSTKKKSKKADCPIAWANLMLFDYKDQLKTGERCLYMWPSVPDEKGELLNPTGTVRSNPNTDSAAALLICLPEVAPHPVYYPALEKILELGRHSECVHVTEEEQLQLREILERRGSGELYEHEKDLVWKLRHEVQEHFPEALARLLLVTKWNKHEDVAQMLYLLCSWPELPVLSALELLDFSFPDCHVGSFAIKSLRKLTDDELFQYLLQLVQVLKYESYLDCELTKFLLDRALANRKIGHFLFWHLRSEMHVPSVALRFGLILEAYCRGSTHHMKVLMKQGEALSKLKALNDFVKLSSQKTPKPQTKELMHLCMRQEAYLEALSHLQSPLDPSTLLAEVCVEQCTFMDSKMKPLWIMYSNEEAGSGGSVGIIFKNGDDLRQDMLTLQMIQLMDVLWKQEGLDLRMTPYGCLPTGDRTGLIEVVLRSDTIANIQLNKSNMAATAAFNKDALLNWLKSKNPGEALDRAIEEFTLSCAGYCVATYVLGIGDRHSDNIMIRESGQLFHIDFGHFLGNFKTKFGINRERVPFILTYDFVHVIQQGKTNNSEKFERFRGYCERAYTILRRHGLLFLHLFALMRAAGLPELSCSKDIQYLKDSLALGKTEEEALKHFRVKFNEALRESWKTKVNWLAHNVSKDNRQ
T1 sequence (P27986 whole entry partner): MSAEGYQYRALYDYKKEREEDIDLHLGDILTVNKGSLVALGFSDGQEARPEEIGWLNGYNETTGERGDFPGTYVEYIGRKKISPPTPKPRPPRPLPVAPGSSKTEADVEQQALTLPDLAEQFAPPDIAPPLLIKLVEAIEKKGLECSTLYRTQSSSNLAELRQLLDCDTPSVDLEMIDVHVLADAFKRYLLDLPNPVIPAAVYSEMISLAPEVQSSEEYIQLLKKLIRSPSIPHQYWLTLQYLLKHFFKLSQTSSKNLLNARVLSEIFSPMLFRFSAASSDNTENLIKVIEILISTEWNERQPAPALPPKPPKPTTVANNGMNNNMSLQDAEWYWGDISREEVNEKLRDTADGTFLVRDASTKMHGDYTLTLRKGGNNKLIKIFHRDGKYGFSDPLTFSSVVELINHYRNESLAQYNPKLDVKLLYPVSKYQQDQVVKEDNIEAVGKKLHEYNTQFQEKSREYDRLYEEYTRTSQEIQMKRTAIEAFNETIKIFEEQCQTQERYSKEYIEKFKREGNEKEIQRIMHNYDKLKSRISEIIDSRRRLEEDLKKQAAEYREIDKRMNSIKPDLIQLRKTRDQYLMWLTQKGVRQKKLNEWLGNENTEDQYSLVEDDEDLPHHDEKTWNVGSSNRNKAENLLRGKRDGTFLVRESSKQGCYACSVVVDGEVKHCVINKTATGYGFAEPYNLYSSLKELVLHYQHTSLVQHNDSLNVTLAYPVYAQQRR
Protocol: as §1

[3] = target: CK1γ1(h) (Homo sapiens, UniProt Q9HCP0); assay: Off-target kinase panel; format: biochemical; settings: MI891 @ 1 µM
CK1γ1(h), sequence (Q9HCP0 whole entry): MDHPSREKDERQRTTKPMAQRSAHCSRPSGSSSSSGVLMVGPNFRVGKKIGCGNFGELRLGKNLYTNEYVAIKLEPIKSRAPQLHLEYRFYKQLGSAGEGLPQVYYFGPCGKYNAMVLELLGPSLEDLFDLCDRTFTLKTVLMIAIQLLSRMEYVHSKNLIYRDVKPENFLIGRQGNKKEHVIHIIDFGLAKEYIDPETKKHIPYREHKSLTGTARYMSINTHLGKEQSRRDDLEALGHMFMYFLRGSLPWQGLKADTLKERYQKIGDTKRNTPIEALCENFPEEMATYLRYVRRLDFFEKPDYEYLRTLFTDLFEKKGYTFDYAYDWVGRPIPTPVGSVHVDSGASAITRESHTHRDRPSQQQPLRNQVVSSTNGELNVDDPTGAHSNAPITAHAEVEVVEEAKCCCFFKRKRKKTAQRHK
Protocol: as §1

[4] = target: T2, PAK2(h) (Homo sapiens, UniProt Q13177); assay: Off-target kinase panel; format: biochemical; settings: MI891 @ 1 µM
T2 construct: purchased Eurofins (Millipore) KinaseProfiler, inferred from the naming style
T2 sequence (Q13177 whole entry): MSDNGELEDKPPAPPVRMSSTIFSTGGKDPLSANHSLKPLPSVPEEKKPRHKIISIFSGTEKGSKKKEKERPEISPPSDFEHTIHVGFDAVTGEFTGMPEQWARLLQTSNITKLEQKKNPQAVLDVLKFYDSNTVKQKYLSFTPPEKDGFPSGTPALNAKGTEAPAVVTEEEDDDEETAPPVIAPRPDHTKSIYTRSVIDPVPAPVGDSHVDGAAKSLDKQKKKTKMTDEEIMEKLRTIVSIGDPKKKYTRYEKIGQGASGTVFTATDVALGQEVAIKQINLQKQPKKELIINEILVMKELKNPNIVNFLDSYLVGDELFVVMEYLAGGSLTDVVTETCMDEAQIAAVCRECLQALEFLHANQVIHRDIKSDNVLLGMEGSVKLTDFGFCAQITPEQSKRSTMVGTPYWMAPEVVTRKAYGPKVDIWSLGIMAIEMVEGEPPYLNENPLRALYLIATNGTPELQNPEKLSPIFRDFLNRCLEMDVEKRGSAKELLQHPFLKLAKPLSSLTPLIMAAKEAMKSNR
Protocol: as §1

[5] = target: T3, PKA(h) (Homo sapiens, UniProt P17612); assay: Off-target kinase panel; format: biochemical; settings: MI891 @ 1 µM
T3 construct: purchased Eurofins (Millipore) KinaseProfiler, inferred from the naming style
Protocol: as §1

[6] = target: T4, MSK2(h) (Homo sapiens, UniProt O75676); assay: Off-target kinase panel; format: biochemical; settings: MI891 @ 1 µM
T4 construct: purchased Eurofins (Millipore) KinaseProfiler, inferred from the naming style
Protocol: as §1

[7] = target: CK2α2(h) (Homo sapiens, UniProt P19784); assay: Off-target kinase panel; format: biochemical; settings: MI891 @ 1 µM
CK2α2(h), sequence (P19784 whole entry): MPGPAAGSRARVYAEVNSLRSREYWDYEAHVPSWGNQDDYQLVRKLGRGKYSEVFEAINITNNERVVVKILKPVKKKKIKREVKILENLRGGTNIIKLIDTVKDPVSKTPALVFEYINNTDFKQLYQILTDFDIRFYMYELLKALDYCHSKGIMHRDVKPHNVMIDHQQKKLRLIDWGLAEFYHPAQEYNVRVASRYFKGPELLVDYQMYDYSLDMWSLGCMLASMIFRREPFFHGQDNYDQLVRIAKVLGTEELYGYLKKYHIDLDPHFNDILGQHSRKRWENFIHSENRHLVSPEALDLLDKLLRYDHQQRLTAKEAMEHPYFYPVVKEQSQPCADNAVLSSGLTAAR
Protocol: as §1

[8] = target: Fyn(h) (Homo sapiens, UniProt P06241); assay: Off-target kinase panel; format: biochemical; settings: MI891 @ 1 µM
Fyn(h), sequence (P06241 whole entry): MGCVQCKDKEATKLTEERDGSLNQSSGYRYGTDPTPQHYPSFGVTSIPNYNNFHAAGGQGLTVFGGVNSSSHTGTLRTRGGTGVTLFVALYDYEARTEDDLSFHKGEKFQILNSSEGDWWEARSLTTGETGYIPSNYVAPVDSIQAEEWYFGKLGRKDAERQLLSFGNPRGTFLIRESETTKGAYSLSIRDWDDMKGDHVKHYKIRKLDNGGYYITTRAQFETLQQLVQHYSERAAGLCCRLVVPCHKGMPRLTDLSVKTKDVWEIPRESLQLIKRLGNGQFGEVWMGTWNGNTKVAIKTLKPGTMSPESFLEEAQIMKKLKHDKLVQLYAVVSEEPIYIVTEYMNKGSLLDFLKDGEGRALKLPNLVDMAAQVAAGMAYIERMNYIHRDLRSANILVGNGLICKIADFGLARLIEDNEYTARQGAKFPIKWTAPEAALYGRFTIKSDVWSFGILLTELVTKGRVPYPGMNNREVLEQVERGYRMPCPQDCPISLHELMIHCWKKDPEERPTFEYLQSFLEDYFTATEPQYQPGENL
Protocol: as §1

[9] = target: T5, Pim-1(h) (Homo sapiens, UniProt P11309); assay: Off-target kinase panel; format: biochemical
T5 construct: purchased Eurofins (Millipore) KinaseProfiler, inferred from the naming style
T5 sequence (P11309 whole entry): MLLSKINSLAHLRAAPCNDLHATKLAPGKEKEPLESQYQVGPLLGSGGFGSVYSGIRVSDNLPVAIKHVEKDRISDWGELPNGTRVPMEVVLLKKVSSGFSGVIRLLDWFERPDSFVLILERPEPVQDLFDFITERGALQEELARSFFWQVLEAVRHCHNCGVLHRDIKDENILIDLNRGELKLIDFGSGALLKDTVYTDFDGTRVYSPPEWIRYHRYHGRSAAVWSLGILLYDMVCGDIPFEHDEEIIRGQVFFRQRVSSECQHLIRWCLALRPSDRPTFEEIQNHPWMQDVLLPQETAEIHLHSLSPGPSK
Protocol: as §1

[10] = target: T6, human CAR LBD (Homo sapiens, UniProt Q14994); assay: LanthaScreen TR-FRET CAR Coactivator assay; format: biochemical; settings: nb = no binding
T6 sequence (Q14994 103-352): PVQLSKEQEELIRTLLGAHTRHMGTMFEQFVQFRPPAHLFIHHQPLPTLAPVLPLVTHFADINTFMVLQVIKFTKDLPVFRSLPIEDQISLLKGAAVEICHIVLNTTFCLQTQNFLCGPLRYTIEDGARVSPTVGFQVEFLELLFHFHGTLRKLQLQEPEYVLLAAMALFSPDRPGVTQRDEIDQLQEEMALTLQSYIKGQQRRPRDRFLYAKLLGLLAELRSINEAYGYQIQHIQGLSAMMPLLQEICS
Protocol: We utilized the LanthaScreen TR-FRET CAR Coactivator Binding Assay Kit, goat (Thermo Fisher Scientific, Cat. No. PV4836), which includes GST-tagged human CAR LBD and a fluorescein-labeled PGC1α coactivator peptide. The assay was performed with slight modifications to the manufacturer’s protocol, as previously reported. […] The interaction with the PXR ligand-binding domain (LBD) was assessed using the LanthaScreen TR-FRET PXR Competitive Binding Assay (Thermo Fisher Scientific, PV4839), as previously described. This assay quantifies the ability of test compounds to displace a fluorescent PXR ligand from the receptor. Fluorescence readings were taken on a Synergy 2 Multi-Mode Microplate Reader (BioTek, Winooski, VT). The half-maximal inhibitory concentration (IC50) for PXR LBD was calculated from at least eight data points using GraphPad Prism software.

[11] = tested on: MOLT4 cells; assay: Off-target quantitative global proteomics in MOLT4 cells; format: cell-based, human
Protocol: Cells were lysed by the addition of lysis buffer (8 M Urea, 50 mM NaCl, 50 mM […] (EPPS) pH 8.5, Protease and Phosphatase inhibitors) and homogenization by bead beating (BioSpec) for three repeats of 30 s at 2400. Bradford assay was used to determine the final protein concentration in the clarified cell lysate. 50 μg of protein for each sample was reduced, alkylated, and precipitated using methanol/chloroform as previously described and the resulting washed precipitated protein was allowed to air-dry. Precipitated protein was resuspended in 4 M Urea, 50 mM HEPES pH 7.4, followed by dilution to <1 M urea with the addition of 200 mM EPPS, pH 8. Proteins were digested overnight at 37 °C with LysC (1:50; enzyme:protein) and trypsin (1:50; enzyme:protein). Sample digests were acidified with formic acid to a pH of 2–3 prior to desalting using C18 solid-phase extraction plates (SOLA, Thermo Fisher Scientific). Desalted peptides were dried in a vacuum-centrifuge and reconstituted in 0.1% formic acid for LC-MS analysis. […]
The diaPASEF raw file processing and controlling peptide and protein level false discovery rates, assembling proteins from peptides, and protein quantification from peptides were performed using library-free analysis in DIA-NN 1.8. […]

CDK7/cyclinH/MAT1(h), sequence (P50613 whole entry): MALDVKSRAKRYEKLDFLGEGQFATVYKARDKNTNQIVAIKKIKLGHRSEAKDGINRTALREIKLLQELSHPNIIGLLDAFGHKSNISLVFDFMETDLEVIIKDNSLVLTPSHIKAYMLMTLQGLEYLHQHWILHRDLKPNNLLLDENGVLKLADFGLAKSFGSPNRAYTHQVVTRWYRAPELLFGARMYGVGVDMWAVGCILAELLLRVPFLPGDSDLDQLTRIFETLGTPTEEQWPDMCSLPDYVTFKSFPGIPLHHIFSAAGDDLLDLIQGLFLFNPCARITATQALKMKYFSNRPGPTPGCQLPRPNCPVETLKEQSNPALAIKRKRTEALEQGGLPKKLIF
CDK7/cyclinH/MAT1(h), sequence (P51946 whole entry partner): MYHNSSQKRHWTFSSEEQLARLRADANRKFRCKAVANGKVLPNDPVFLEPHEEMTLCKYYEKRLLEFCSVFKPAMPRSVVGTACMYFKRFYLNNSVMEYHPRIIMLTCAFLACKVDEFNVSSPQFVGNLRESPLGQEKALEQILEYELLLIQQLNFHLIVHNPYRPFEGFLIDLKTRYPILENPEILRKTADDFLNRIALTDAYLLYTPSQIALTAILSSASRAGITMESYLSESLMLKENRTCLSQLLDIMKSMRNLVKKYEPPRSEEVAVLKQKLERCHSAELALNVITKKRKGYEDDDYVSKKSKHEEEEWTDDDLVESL
CDK7/cyclinH/MAT1(h), sequence (P51948 whole entry partner): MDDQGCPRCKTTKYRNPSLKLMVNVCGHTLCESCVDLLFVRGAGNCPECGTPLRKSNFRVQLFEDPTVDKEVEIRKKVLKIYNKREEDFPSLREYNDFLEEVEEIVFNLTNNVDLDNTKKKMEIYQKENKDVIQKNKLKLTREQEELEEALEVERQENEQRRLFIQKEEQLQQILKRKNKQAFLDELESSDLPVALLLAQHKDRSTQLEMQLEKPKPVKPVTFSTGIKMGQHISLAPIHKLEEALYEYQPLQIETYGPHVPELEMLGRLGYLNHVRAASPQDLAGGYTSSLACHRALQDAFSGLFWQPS

Molecule	activity at 1 µM [1] [%]	activity at 1 µM [2] [%]	activity at 1 µM [3] [%]	activity at 1 µM [4] [%]	activity at 1 µM [5] [%]	activity at 1 µM [6] [%]	activity at 1 µM [7] [%]	activity at 1 µM [8] [%]	activity at 1 µM ([9]; MI891 @ 1 µM) [%]	inhibition at 1 µM ([9]; at 1 μM) [%]	CAR TR-FRET (EC50, μM) ([10]; listed as 11 (MI891))	CAR TR-FRET (EC50, μM) ([10]; listed as MI891)	IKZF1, IKZF3 and ZFP91 levels, global proteomics [11]	GSPT1 expression, global proteomics ([11]; 2 μM of MI1013)
NC(=O)c1cc(Cn2cc(-c3c(-c4ccc(Cl)cc4)nc4c(F)cc(F)cn34)nn2)ccc1Cl [Compound 11, 2-Chloro-5-((4-(2-(4-chlorophenyl)-6,8-difluoroimidazo[1,2-a]pyridin-3-yl)-1H-1,2,3-triazol-1-yl)methyl)-benzamide]	94	98	100	84	108	110	109	81	53	53	nb	no binding activity	–	–
N-(4-((1-(2,5-dimethoxyphenyl)-5-methyl-1H-1,2,3-triazol-4-yl)sulfonyl)phenyl)-3-(2-(2-(2-(4-(((2-(2,6-dioxopiperidin-3-yl)-1,3-dioxoisoindolin-4-yl)amino)methyl)-1H-1,2,3-triazol-1-yl)ethoxy)ethoxy)ethoxy)propenamide [Compound 36]	–	–	–	–	–	–	–	–	–	–	–	–	degradation	remains undegraded

— PMC12305494, “Discovery of PXR Antagonist MI891 and PXR Degrader MI1013 and Their Roles in Hepatic Gene Regulation” (Journal of Medicinal Chemistry, 2025)
